For the first experiment, the target named is T1, recombinant human GR (Homo sapiens, UniProt P04150).
T1 construct: purchased Panvera/Invitrogen P2812 (kit P2893)
T1 sequence (P04150 1-777): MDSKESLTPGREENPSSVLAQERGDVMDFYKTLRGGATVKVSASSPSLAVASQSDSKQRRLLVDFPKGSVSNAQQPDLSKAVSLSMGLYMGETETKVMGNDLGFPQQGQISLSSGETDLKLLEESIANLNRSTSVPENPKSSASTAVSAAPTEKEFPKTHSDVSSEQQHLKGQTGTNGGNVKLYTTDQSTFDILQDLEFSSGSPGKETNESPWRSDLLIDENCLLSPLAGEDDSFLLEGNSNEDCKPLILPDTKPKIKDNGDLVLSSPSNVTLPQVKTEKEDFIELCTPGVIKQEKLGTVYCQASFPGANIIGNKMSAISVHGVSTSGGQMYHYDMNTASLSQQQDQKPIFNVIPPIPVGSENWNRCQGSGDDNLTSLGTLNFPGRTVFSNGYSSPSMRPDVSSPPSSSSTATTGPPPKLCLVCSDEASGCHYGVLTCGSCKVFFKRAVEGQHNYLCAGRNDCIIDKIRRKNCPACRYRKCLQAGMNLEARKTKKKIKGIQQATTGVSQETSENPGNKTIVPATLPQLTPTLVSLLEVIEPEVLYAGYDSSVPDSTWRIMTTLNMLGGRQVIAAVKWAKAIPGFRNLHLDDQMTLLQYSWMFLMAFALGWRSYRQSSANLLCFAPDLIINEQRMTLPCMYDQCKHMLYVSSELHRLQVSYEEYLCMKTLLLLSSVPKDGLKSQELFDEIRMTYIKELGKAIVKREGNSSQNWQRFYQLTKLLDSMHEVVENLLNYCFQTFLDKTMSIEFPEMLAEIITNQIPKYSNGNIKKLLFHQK
The experiment in a line: Human Glucocorticoid Receptor (GR) Assay (fluorescence polarization, Panvera/Invitrogen kit). The experiment is classed as binding.
Conditions: not given
Summed up: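 Fluorescence polarization competition with recombinant GR and GS Red fluorescent ligand plus stabilizing peptide and DTT in potassium phosphate/sodium molybdate/EDTA buffer with DMSO. Incubated 2 hours at room temperature in the dark; 0% control DMSO, 100% control 10 μM dexamethasone.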
A general note: In fluorescence polarisation assays a small probe gives low polarisation when free and higher when bound to something large.
For the compound `C[C@]12Cc3cnn(-c4ccc(F)cc4)c3C=C1CC[C@@H]1[C@@H]2[C@@H](O)C[C@@]2(C)[C@H]1CC[C@]2(OC(=O)CF)C(=O)SCC#N` [Example 27, (1R,3aS,3bS,10aR,10bS,1,1S,12aS)-1-{[(Cyanomethyl)thio]carbonyl}-7-(4-fluoro-phenyl)-11-hydroxy-10a,12a-dimethyl-1,2,3,3a,3b,4,5,7,10,10a,10b,11,12,12a-tetradecahydrocyclopenta[5,6]naphtho[1,2-f]indazol-1-yl fluoroacetate], the concentration for half-maximal inhibition (IC50) stood at 3 nM.

Take `C[C@]12Cc3cnn(-c4ccc(F)cc4)c3C=C1CC[C@@H]1[C@@H]2[C@@H](O)C[C@@]2(C)[C@H]1CC[C@]2(OC(=O)CF)C(=O)SCF` [Example 28, (1R,3aS,3bS,10aR,10bS,11S,12aS)-1-{[(Fluoromethyl)thio]carbonyl}-7-(4-fluoro-phenyl)-11-hydroxy-10a,12a-dimethyl-1,2,3,3a,3b,4,5,7,10,10a,10b,11,12,12a-tetradecahydrocyclopenta[5,6]naphtho[1,2-f]indazol-1-yl fluoroacetate]: the IC50 is 4.2 nM.

Staying with this experiment, now noted: fluorescence polarization; GS Red tracer; 2 hours at room temperature; 100% control 10 μM Dexamethasone; read-out: Inhibition of GR binding, IC50.
For the compound `CC(=O)OCC(=O)O[C@]1(C(=O)SCC#N)CC[C@H]2[C@@H]3CCC4=Cc5c(cnn5-c5ccc(F)cc5)C[C@]4(C)[C@H]3[C@@H](O)C[C@@]21C` [Example 29, (1R,3aS,3bS,10aR,10bS,11S,12aS)-1-{[(Cyanomethyl)thio]carbonyl}-7-(4-fluoro-phenyl)-11-hydroxy-10a,12a-dimethyl-1,2,3,3a,3b,4,5,7,10,10a,10b,11,12,12a-tetradecahydrocyclopenta[5,6]naphtho[1,2-f]indazol-1-yl (acetyloxy)acetate], the 50% inhibitory concentration (IC50) worked out at 5.7 nM.

With `COCC(=O)O[C@]1(C(=O)SCC#N)CC[C@H]2[C@@H]3CCC4=Cc5c(cnn5-c5ccc(F)cc5)C[C@]4(C)[C@H]3[C@@H](O)C[C@@]21C` [Example 30, (1R,3aS,3bS,10aR,10bS,11S,12aS)-1-{[(Cyanomethyl)thio]carbonyl}-7-(4-fluoro-phenyl)-11-hydroxy-10a,12a-dimethyl-1,2,3,3a,3b,4,5,7,10,10a,10b,11,12,12a-tetradecahydrocyclopenta[5,6]naphtho[1,2-f]indazol-1-yl methoxyacetate], the IC50 was determined as 3.1 nM.

For `COCC(=O)O[C@]1(C(=O)SCC#CCO)CC[C@H]2[C@@H]3CCC4=Cc5c(cnn5-c5ccc(F)cc5)C[C@]4(C)[C@H]3[C@@H](O)C[C@@]21C` [Example 31, (1R,3aS,3bS,10aR,10bS,11S,12aS)-7-(4-Fluorophenyl)-11-hydroxy-1-{[(4-hydroxy-but-2-yn-1-yl)thio]carbonyl}-10a,12a-dimethyl-1,2,3,3a,3b,4,5,7,10,10a,10b,11,12,12a-tetradecahydrocyclopenta[5,6]naphtho[1,2-f]indazol-1-yl methoxyacetate], the IC50 worked out at 4.5 nM.

`COCC(=O)O[C@]1(C(=O)SCCO)CC[C@H]2[C@@H]3CCC4=Cc5c(cnn5-c5ccc(F)cc5)C[C@]4(C)[C@H]3[C@@H](O)C[C@@]21C` [Example 32, (1R,3aS,3bS,10aR,10bS,11S,12aS)-7-(4-Fluorophenyl)-11-hydroxy-1-{[(2-hydroxy-ethyl)thio]carbonyl}-10a,12a-dimethyl-1,2,3,3a,3b,4,5,7,10,10a,10b,11,12,12a-tetradecahydrocyclopenta[5,6]naphtho[1,2-f]indazol-1-yl methoxyacetate]: the IC50 came to 1.6 nM.

Consider `COCC(=O)O[C@]1(C(=O)SCC(C)=O)CC[C@H]2[C@@H]3CCC4=Cc5c(cnn5-c5ccc(F)cc5)C[C@]4(C)[C@H]3[C@@H](O)C[C@@]21C` [Example 33, (1R,3aS,3bS,10aR,10bS,11S,12aS)-7-(4-Fluorophenyl)-11-hydroxy-10a,12a-dimethyl-1-{[(2-oxopropyl)thio]carbonyl}-1,2,3,3a,3b,4,5,7,10a,10 b,11,12,12a-tetradecahydrocyclopenta[5,6]naphtho[1,2-f]indazol-1-yl methoxyacetate], for which the IC50 was 2.7 nM.

In the case of `COCC(=O)O[C@]1(C(=O)SCF)CC[C@H]2[C@@H]3CCC4=Cc5c(cnn5-c5ccc(F)cc5)C[C@]4(C)[C@H]3[C@@H](O)C[C@@]21C` [Example 34, (1R,3aS,3bS,10aR,10bS,11S,12aS)-1-{[(Fluoromethyl)thio]carbonyl}-7-(4-fluoro-phenyl)-11-hydroxy-10a,12a-dimethyl-1,2,3,3a,3b,4,5,7,10,10a,10b,11,12,12a-tetradecahydrocyclopenta[5,6]naphtho[1,2-f]indazol-1-yl methoxyacetate], the IC50 turned out to be 1.7 nM.

Regarding `C[C@]12Cc3cnn(-c4ccc(F)cc4)c3C=C1CC[C@@H]1[C@@H]2[C@@H](O)C[C@@]2(C)[C@H]1CC[C@]2(OC(=O)C1CC1)C(=O)SCC#N` [Example 35, (1R,3aS,3bS,10aR,10bS,11S,12aS)-1-{[(Cyanomethyl)thio]carbonyl}-7-(4-fluoro-Phenyl)-11-hydroxy-10a,12a-dimethyl-1,2,3,3a,3b,4,5,7,10,10a,10b,11,12,12a-tetradecahydrocyclopenta[5,6]naphtho[1,2-f]indazol-1-yl cyclopropanecarboxylate], the IC50 was 5 nM.

For the compound `C[C@]12Cc3cnn(-c4ccc(F)cc4)c3C=C1CC[C@@H]1[C@@H]2[C@@H](O)C[C@@]2(C)[C@H]1CC[C@]2(OC(=O)C1CC1)C(=O)SCCO` [Example 36, (1R,3aS,3bS,10aR,10bS,11S,12aS)-7-(4-Fluorophenyl)-11-hydroxy-1-{[(2-hydroxy-ethyl)thio]carbonyl}-10a,12a-dimethyl-1,2,3,3a,3b,4,5,7,10,10a,10b,11,12,12a-tetradecahydrocyclopenta[5,6]naphtho[1,2-f]indazol-1-yl cyclopropanecarboxylate], the IC50 was 2.5 nM.

Take `C[C@]12Cc3cnn(-c4ccc(F)cc4)c3C=C1CC[C@@H]1[C@@H]2[C@@H](O)C[C@@]2(C)[C@H]1CC[C@]2(OC(=O)C1CC1)C(=O)SCC#CCO` [Example 37, (1R,3aS,3bS,10aR,10bS,11S,12aS)-7-(4-Fluorophenyl)-11-hydroxy-{[(4-hydroxybut-2-yn-1-yl)thio]carbonyl}-10a,12a-dimethyl-1,2,3,3a,3b,4,5,7,10,11a,10b,11,12,12a-tetradecahydrocyclopenta[5,6]naphtho[1,2-f]indazol-1-yl cyclopropanecarboxylate]: the IC50 was 5.7 nM.

Regarding `C[C@]12Cc3cnn(-c4ccc(F)cc4)c3C=C1CC[C@@H]1[C@@H]2[C@@H](O)C[C@@]2(C)[C@H]1CC[C@]2(OC(=O)C1CC1)C(=O)SCF` [Example 38, (1R,3aS,3bS,10aR,10bS,11S,12aS)-1-{[(Fluoromethyl)thio]carbonyl}-7-(4-fluoro-phenyl)-11-hydroxy-10a,12a-dimethyl-1,2,3,3a,3b,4,5,7,10,10a,10b,11,12,12a-tetradecahydrocyclopenta[5,6]naphtho[1,2-f]indazol-1-yl cyclopropanecarboxylate], the IC50 was 5.7 nM.

For the compound `C[C@]12Cc3cnn(-c4ccc(F)cc4)c3C=C1CC[C@@H]1[C@@H]2[C@@H](O)C[C@@]2(C)[C@H]1CC[C@]2(OC(=O)c1nccs1)C(=O)SCC#N` [Example 39, (1R,3aS,3bS,10aR,10bS,11S,12aS)-1-{[(Cyanomethyl)thio]carbonyl}-7-(4-fluorophenyl)-11-hydroxy-10a,12a-dimethyl-1,2,3,3a,3b,4,5,7,10,10a,10b,11,12,12a-tetradecahydropcyclopenta[5,6]naphtho[1,2-f]indazol-1-yl 1,3-thiazole-2-carboxylate], the IC50 stood at 3.3 nM.

As for `C[C@]12Cc3cnn(-c4ccc(F)cc4)c3C=C1CC[C@@H]1[C@@H]2[C@@H](O)C[C@@]2(C)[C@H]1CC[C@]2(OC(=O)c1nccs1)C(=O)SCCO` [Example 40, (1R,3aS,3bS,10aR,10bS,11S,12aS)-7-(4-Fluorophenyl)-11-hydroxy-1-{[(2-hydroxy-ethyl)thio]carbonyl}-10a,12a-dimethyl-1,2,3,3a,3b,4,5,7,10,10a,10b,11,12,12a-tetradecahydrocyclopenta[5,6]naphtho[1,2-f]indazol-1-yl 1,3-thiazole-2-carboxylate], the IC50 was 2.9 nM.

With `C[C@]12Cc3cnn(-c4ccc(F)cc4)c3C=C1CC[C@@H]1[C@@H]2[C@@H](O)C[C@@]2(C)[C@H]1CC[C@]2(OC(=O)c1nccs1)C(=O)SCC#CCO` [Example 41, (1R,3aS,3bS,10aR,10bS,11S,12aS)-7-(4-Fluorophenyl)-11-hydroxy-{[(4-hydroxy-but-2-yn-1-yl)thio]carbonyl}-10a,12a-dimethyl-1,2,3,3a,3b,4,5,7,10,10a,10b,11,12,12a-tetradecahydrocyclopenta[5,6]naphtho[1,2-f]indazol-1-yl 1,3-thiazole-2-carboxylate], the IC50 is 4.1 nM.

The IC50 is the midpoint of a concentration-inhibition curve.
